Measurements from patent US20250215030A1, “STAT MODULATORS AND USES THEREOF” (Recludix Pharma, Inc., priority 2022, published 2025).
Read-outs that look alike come from different tables or passages of the source.

Target: T1, pSTAT3 (pY705-STAT3) (Homo sapiens, UniProt P40763)
T1 construct: host or cells: cryopreserved PBMC
Experiment: MSD-pSTAT-PBMC Assay (pSTAT3, IL-6 stimulated)
Type: cell-based
How it was run: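 Human PBMCs (50,000 cells/well for STAT3, 25,000 for STAT6) treated with compound 3 h, then stimulated 10 min with 10 ng/mL IL-6 or 1 ng/mL IL-4. Lysate pSTAT3 (pY705) or pSTAT6 (pY641) measured by MSD sandwich electrochemiluminescence. Signal minus unstimulated, normalized to DMSO; IC50 by variable-slope nonlinear regression.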

[1] = PBMC, compound 3 hrs, then 10 ng/mL IL-6 for 10 min, MSD pY705-STAT3, read-out: pSTAT3

T1 sequence (P40763 whole entry): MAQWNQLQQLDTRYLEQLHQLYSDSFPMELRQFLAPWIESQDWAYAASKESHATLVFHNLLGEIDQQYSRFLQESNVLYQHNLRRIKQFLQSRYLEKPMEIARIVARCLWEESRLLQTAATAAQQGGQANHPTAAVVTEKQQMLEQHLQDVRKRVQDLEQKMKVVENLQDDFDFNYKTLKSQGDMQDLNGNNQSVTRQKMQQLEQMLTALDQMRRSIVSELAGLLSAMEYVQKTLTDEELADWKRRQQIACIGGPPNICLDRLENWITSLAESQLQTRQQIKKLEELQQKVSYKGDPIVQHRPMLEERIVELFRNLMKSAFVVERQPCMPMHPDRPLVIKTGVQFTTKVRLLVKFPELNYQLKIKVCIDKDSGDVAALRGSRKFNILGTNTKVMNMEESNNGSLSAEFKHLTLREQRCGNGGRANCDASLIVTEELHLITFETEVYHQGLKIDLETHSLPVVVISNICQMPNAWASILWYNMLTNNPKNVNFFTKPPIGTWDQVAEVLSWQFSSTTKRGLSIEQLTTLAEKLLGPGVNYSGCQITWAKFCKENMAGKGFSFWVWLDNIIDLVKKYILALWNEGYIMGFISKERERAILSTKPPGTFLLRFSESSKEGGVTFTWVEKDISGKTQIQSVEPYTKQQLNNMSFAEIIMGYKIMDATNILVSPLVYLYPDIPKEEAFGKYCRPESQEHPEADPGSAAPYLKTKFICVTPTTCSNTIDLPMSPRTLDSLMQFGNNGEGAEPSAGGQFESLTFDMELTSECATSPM

Molecule	IC50 [1]	IC50
CCCOC(=O)[C@H](C)N[P@@](=O)(Oc1ccccc1)[C@@H](F)c1ccc2sc(C(=O)N[C@H]3C[C@@H]4C[C@@H]4C[C@H]4CC[C@@H](C(=O)N5CC(c6cnccc6N(C)C)C5)N4C3=O)cc2c1 [Compound 414, propyl((S)-((R)-(2-(((3S,6S,7aS,8aR,9aR)-3-(3-(4-(dimethylamino)pyridin-3-yl)azetidine-1-carbnyl)-5-oxodecahydro-1H-cyclopropa[d]pyrrolo[1,2-a]azocin-6-yl)carbamoyl)benzo[b]thiophen-5-yl)fluoromethyl)(phenoxy)phosphoryl)-L-alaninate]	< 100 nM	
CCCOC(=O)[C@H](C)NP(=O)(Oc1ccccc1)[C@H](F)c1ccc2sc(C(=O)N[C@H]3C[C@@H]4C[C@@H]4C[C@H]4CC[C@@H](C(=O)N5CC(c6cnccc6N6CC[C@H]6COC)C5)N4C3=O)cc2c1 (stereo partly drawn) [Compound 416, propyl(((S)-fluoro(2-(((3S,6S,7aS,8aR,9aR)-3-(3-(4-((S)-2-(methoxymethyl)azetidin-1-yl)pyridin-3-yl)azetidine-1-carbonyl)-5-oxodecahydro-1H-cyclopropa[d]pyrrolo[1,2-a]azocin-6-yl)carbamoyl)benzo[b]thiophen-5-yl)methyl)(phenoxy)phosphoryl)-L-alaninate]		< 100 nM
CCCOC(=O)[C@H](C)N[P@](=O)(Oc1ccccc1)C(F)c1ccc2sc(C(=O)N[C@H]3C[C@@H]4C[C@@H]4C[C@H]4CC[C@@H](C(=O)N5CC(c6cnccc6N(C)C)C5)N4C3=O)cc2c1 (stereo partly drawn) [Compound 418, propyl((R)-((S)-(2-(((3S,6S,7aS,8aR,9aR)-3-(3-(4-(dimethylamino)pyridin-3-yl)azetidine-1-carbonyl)-5-oxodecahydro-1H-cyclopropa[d]pyrrolo[1,2-a]azocin-6-yl)carbamoyl)benzo[b]thiophen-5-yl)fluoromethyl)(phenoxy)phosphoryl)-L-alaninate]		< 100 nM
CCCOC(=O)[C@H](C)NP(=O)(Oc1ccccc1)C(F)c1ccc2sc(C(=O)N[C@H]3C[C@@H]4C[C@@H]4C[C@H]4CC[C@@H](C(=O)N5CC(c6cnccc6OCC)C5)N4C3=O)cc2c1 (stereo partly drawn) [Compound 423, propyl(((S)-(2-(((3S,6S,7aS,8aR,9aR)-3-(3-(4-ethoxypyridin-3-yl)azetidine-1-carbonyl)-5-oxodecahydro-1H-cyclopropa[d]pyrrolo[1,2-a]azocin-6-yl)carbamoyl)benzo[b]thiophen-5-yl)fluoromethyl)(phenoxy)phosphoryl)-L-alaninate]		< 100 nM
CCCOC(=O)[C@H](C)NP(=O)(Oc1ccccc1)C(F)c1ccc2sc(C(=O)N[C@H]3C[C@@H]4C[C@@H]4C[C@H]4CC[C@@H](C(=O)N5CC(c6cnccc6N6CCN(C)CC6)C5)N4C3=O)cc2c1 (stereo partly drawn) [Compound 424, propyl(((R)-fluoro(2-(((3S,6S,7aS,8aR,9aR)-3-(3-(4-(4-methylpiperazin-1-yl)pyridin-3-yl)azetidine-1-carbonyl)-5-oxodecahydro-1H-cyclopropa[d]pyrrolo[1,2-a]azocin-6-yl)carbamoyl)benzo[b]thiophen-5-yl)methyl)(phenoxy)phosphoryl)-L-alaninate]		100 to 1000 nM
propyl(((2-(((3S,6S,7aS,8aR,9aR)-3-((1R,5R)-2-acetyl-2,6-diazabicyclo[3.2.0]heptane-6-carbonyl)-5-oxodecahydro-1H-cyclopropa[d]pyrrolo[1,2-a]azocin-6-yl)carbamoyl)benzo[b]thiophen-5-yl)fluoromethyl)(phenoxy)phosphoryl)-L-alaninate [Compound 292]	< 100 nM	
propyl(((2-(((3S,6S,7aS,8aR,9aR)-8a-methyl-5-oxo-3-(3-(pyridin-3-yl)azetidine-1-carbonyl)decahydro-1H-cyclopropa[d]pyrrolo[1,2-a]azocin-6-yl)carbamoyl)benzo[b]thiophen-5-yl)methyl)(phenoxy)phosphoryl)-L-alaninate [Compound 233]	< 100 nM	
